Reference: patent US9562053B2, “Benzo-fused heterocyclic derivatives useful as agonists of GPR120” (Janssen Pharmaceutica NV, priority 2013, dated 2017)

Experiments:
C57bl/6J Mice = assay: C57bl6 mouse OGTT; type: in vivo
Method: Male, C57bl/6J Mice were ordered in at 8 weeks of age from Jackson Labs. Individual mice weighed anywhere in the range of 25-30 grams on study day. The mice were fasted, with removal of food occurring at 7 am on the morning of the study. Animals were moved into the room at 10:00 am, to give them time to acclimate. Glucose (insulin syringes) was drawn up either the night before or the morning of the study. Glucose was dosed (IP) at 1.5 g/kg at 7.5 ml/kg (20% glucose straight TEKNOVA, 250 ml sterile bottle w/catalogue number G0525). Test compounds were kept spinning and were only drawn into the syringes prior to study commencement. Animals were bled via tail snip to determine basal glucose levels prior to dosing of treatments. An Ascensia BREEZE Blood Glucose Monitoring System by Bayer (using unique 10-test disks) was used for determining glucose levels. The bleeds started at approximately 12:45 pm and dosing started, at 1-minute intervals, immediately after. All groups were dosed 30 minutes prior to glucose administration at a dose volume of 10 ml/kg (the dose volume was calculated separately for each individual animal). Thirty minutes after the first dose animals were bled again for a second baseline, or T=0, and immediately dosed with glucose via an i.p. injection. The exact dose volume for glucose was also calculated separately for each individual animal. Glucose measurements were taken at −30 min prior to compound dose, at t=0 (immediately prior to glucose dose), and at 15, 30, 45, 60, 90 min post glucose dose.
Glucose values were entered into an Excel sheet and graphed in GraphPad Prism. The following were calculated from Prism: Change from −30 to 0 BSLN Glucose, Raw Glucose AUC −30 to 90 min, Delta Glucose AUC −30 to 90 min, Raw Glucose AUC 0 to 90 min, Delta Glucose AUC 0 to 90 min.
The assay design is the same as that described above for the C57bl6 mouse IPGTT. The difference is that glucose was dosed PO at 3 g/kg, 7.5 ml/kg of 40% glucose.

[1] = biological target: T1, long form of human GPR120 (Homo sapiens, UniProt Q5NUL3); assay: Human GPR120 DiscoveRx PathHunter Beta-Arrestin Assay, Procedure β-arrestin A (3000 cells per well); type: cell-based; settings: read-out: GPR120 B-arrestin A EC50
T1 construct: host or cells: PathHunter CHO-K1 GPR120 β-Arrestin Cell Line
T1 sequence (Q5NUL3 1-377 isoform Q5NUL3-1): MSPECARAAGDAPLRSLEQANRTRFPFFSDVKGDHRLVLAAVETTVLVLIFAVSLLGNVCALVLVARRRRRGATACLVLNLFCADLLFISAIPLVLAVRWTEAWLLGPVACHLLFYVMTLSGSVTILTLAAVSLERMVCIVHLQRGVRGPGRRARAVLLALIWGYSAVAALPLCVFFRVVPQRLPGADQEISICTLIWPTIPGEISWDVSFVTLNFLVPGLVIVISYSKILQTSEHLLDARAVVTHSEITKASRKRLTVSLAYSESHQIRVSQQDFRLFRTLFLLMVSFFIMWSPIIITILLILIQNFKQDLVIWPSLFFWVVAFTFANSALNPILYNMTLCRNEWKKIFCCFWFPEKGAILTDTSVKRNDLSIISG
Source text: (§1) The binding of an agonist (medium/long chain fatty acids or small molecule agonists) to the G-protein-coupled receptor GPR120 activates phospholipase C, leading to release of intracellular Ca^+2 through the generation of inositol 1,4,5-trisphosphate (InsP3 or IP3). GPR120 activation can also trigger intracellular signaling via recruitment of β-Arrestin. In the present method, agonist-induced activation of the human GPR120 receptor is monitored through the use of PathHunter CHO-K1 GPR120 β-Arrestin Cell Line engineered by DiscoveRx, as detailed below. The cell lines are designed to co-express both the ProLink/Enzyme Donor (PK)-tagged GPCR and the Enzyme Activator (EA)-tagged β-Arrestin fusion proteins. Upon GPR120 receptor stimulation/activation, the EA-tagged β-Arrestin portion is translocated to the tagged receptor, where the two enzyme fragments are brought within close proximity. Under these conditions, these fragments can interact and form an active Beta-gal enzyme complex through Enzyme Fragment Complementation (EFC). This active Beta-gal complex can enzymatically hydrolyse the substrate to produce a detectable light signal; therefore, activation as a function of agonist concentration can be expressed as an EC50 value to determine relative compound activities. This in vitro assay therefore serves to assess compound agonist activity of the GPR120.
In Procedure β-arrestin A, the cell used were PathHunter CHO-K1 GPR120 β-Arrestin Cell Line, expressing the long form of human GPR120 (Genbank accession number NM_181745), with 3000 cells per well.
(§2) The selected CHO-K1 GPR120 β-Arrestin cells were cultured in Ham's F12 media supplemented with 10% fetal bovine serum (FBS), 1% Glutamine, 1×p/s, 800 μg/ml G418 and 300 μg/ml Hygromycin B (for selection). Cell stocks were maintained and grown in a sub-confluent state using standard cell culture procedures. The day before the experiment, the cells were harvested with non-enzymatic cell dissociation buffer and re-suspended in complete growth media at the desired concentration. A Corning 384-plate was then seeded with the proper number of cells in a volume of 25 μL, per well. The seeded plates were incubated overnight at 37° C.
(§3) On the day of the experiment, the Assay Buffer containing (a) HBSS with Ca^++ and Mg^++, (b) 20 mM HEPES, and (c) 0.1% BSA stabilizer (pH 7.4) was prepared. The growth medium was gently removed from the cell plates and 20 μL of Assay Buffer added to each well. The plate was then incubated at 37° C. for 60 mins. Test compounds were serially diluted in Assay Buffer to desired concentrations (more particularly, to one or more of the following μM concentrations: 25 μM, 12.5 μM, 6.25 μM, 3.125 μM, 1.562 μM, 0.781 μM, 0.391 μM, 0.195 μM, 0.098 μM, 0.049 μM, 0.024 μM, 0.012 μM). Five μl of compound dilution was then added to each well and the plate incubated at 37° C. for 90 mins. The detection reagents were prepared according to the manufacture's instruction. Twelve μL of the detection reagents were added to each well and the plate incubated at room temperature for 60 mins.
(§4) The plates were read on an EnVision instrument, using Protocol name: Luminescence, Plate type: 384 Costar, Measurement height: 3 mm, Measurement time: 1 s, Aperture: 384 Plate aperture. The % activity relative to the positive control was calculated using the following equation:
(§5) The % Activity values were plotted versus the concentration of test compound and fitted to a sigmoidal dose-response curve with a Hill slope=1 (fixed value) using nonlinear regression with GraphPad Prism 5.0 to calculate the EC50 values. The Fitting Equation was: Y=Bottom+(Top−Bottom)/(1+10^((LogEC50−X)*HillSlope)), where X is the log of the concentration and Y is the response.

[2] = biological target: T2, short form of the GPR120 receptor (Homo sapiens, UniProt Q5NUL3); assay: Human GPR120 DiscoveRx PathHunter Beta-Arrestin Assay, Procedure β-arrestin B (5000 cells/well); type: cell-based
T2 construct: host or cells: PathHunter CHO-K1 GPR120S β-Arrestin Cell Line
T2 sequence (Q5NUL3 1-361): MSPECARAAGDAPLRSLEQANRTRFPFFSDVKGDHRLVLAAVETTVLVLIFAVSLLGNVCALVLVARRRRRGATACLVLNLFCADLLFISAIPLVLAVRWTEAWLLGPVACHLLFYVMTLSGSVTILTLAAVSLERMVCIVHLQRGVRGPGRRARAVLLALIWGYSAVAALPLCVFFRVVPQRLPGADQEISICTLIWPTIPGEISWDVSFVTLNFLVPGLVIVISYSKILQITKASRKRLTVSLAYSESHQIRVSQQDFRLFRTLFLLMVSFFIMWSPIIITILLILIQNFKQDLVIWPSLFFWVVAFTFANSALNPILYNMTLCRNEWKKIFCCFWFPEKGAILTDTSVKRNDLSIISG
Source text: as §1
In Procedure β-arrestin B the cells used were PathHunter CHO-K1 GPR120S β-Arrestin Cell Line, expressing the short form of the GPR120 receptor (Accession #NM_181745), with 5000 cells/well.
as §2, §3, §4, §5

Human GPR120 short form = biological target: T3, Human GPR120 short form (Homo sapiens, UniProt Q5NUL3); assay: Human GPR120 in Calcium Flux Assay, Procedure Calcium B (4200 cells/well); type: cell-based
T3 construct: expressed in transfected cells
T3 sequence (Q5NUL3 1-361): T2 sequence (Q5NUL3 1-361)
Source text: This in vitro assay serves to assess test compound agonist activity against the short splice variant (SVS with Accession number NM_001195755.1 confirmed by sequencing data) of the GPR120 receptor. The Human Short splice variant #2 (NM_001195755.1) is missing an in-frame coding exon compared to variant 1 (the Human Long splice variant NM_181745.3), resulting in a shorter isoform (GPR120-S) lacking a 16 aa protein segment compared to isoform GPR120-L. The assay platform utilizes HEK-293 cells stably transfected to express the Human GPR120 short form. These cells are first loaded with the Ca^+2 sensitive dye, Fluo-4 NW. Upon stimulation, intracellular released Ca^+2 can bind to the dye and alter its fluorescence intensity. This increase in fluorescence signal, and thus the flux in intracellular [Ca^+2], is detected and quantitated by fluorescence imaging using a FLIPR reader. The effect of the agonist is measured as a function of concentration and used to calculate an EC50 based upon a response curve.
In this procedure 4200 cells/well were employed.
A Human GPR120 clone (Genbank accession number NM_001195755.1) was placed into the pcDNA3.1 mammalian expression vector carrying the neomycin resistance gene. A stable mammalian cell was generated by placing the above clone into a HEK293 background. Clonal cells responding to long chain fatty acids had expression levels of GPR120 confirmed by RT-qPCR. Human HEK-GPR120 cells were cultured in Dulbecco's Modified Eagle's Medium (DMEM)/F12 medium supplemented with 10% fetal bovine serum (FBS), 1% L-Glutamine and 1% penicillin/streptomycin and 0.5 mg/ml G-418. Cells were split 2 times a week to keep the cells in the log-phase growth.
In preparation for the assay, HEK cells stably transfected with Human GPR120 (2.5K cells per well in 25 uL growth medium) were seeded into 384-well plates and then incubated overnight (37° C., 5% CO2). The next day, the media was changed to 20 μl assay buffer and the cell starved for 1 h at 37° C. The dye loading solution (2× dye) was prepared using 10 ml assay buffer, 100 μl of 250 mM probenecid, 1 bottle of Component A, and 20 μl of dye in DMSO. Twenty μl of the 2× dye loading buffer was then added to each well. The plates were incubated at 37° C. for 30 min, then at room temperature for an additional 15 minutes, before performing the assay on FLIPR.
Test compounds were prepared in assay buffer (2 μl of test compound+198 μl assay buffer, final DMSO in assay plate is 0.2%) at the desired concentration, more particularly at 100 μM, 50 μM, 25 μM, 12.5 μM, 6.25 μM, 3.125 μM, 1.562 μM, 0.781 μM, 0.391 μM, 0.195 μM, 0.098 μM, 0.049 μM, 0.024 μM and 0.012 μM.
The assay was performed on a FLIPR plate reader using the following parameters. Baseline was read for 10 seconds at 1 sec intervals. The program was set to transfer 10 μL of ligand from compound plate to cell plate after baseline reading. Aspiration was executed at: 10 μl/sec speed, 4.6 μl height; Dispensing was executed at: 30 μl/sec speed, 45 μl height. After compound addition, each well was read for 300 sec, with measurements collected at 1 sec intervals.
The kinetic data from the FLIPR was based upon a 5 minute window for data collection. The fluorescence of each sample well was used for individual calculations of a normalized RFU value, which was defined as maximum response minus the minimum response. The normalized fluorescence reading (RFU) was calculated as follows: RFU=Fmax−Fmin
The data were fitted to a sigmoidal dose-response curve with a variable Hill slope (<2) using nonlinear regression with GraphPad Prism 5.0 to calculate the EC50 values. The Fitting Equation was: Y=Bottom+(Top−Bottom)/(1+10^((LogEC50−X)*HillSlope)), where X is the log of the concentration and Y is the response.

CCCc1cc2cc(F)cc(COc3ccc(CCC(=O)O)c(C)c3C)c2o1 [Compound 13, 3-{4-[(5-Fluoro-2-propyl-1-benzofuran-7-yl)methoxy]-2,3-dimethylphenyl}propanoic acid]
Dose Responses C57 OGTT (C57bl/6J Mice; 3 mg/kg): −16%
Dose Responses C57 OGTT (C57bl/6J Mice; 10 mg/kg): −16%
EC50 [1]: 302 nM

Cc1c(CCC(=O)O)ccc(OCc2cc(Cl)cc3sc(C(C)C)nc23)c1C [Compound 106, 3-(4-{[6-chloro-2-(1-methylethyl)-1,3-benzothiazol-4-yl]methoxy}-2,3-dimethylphenyl)propanoic acid]
EC50 [2]: 882 nM
EC50 (Human GPR120 short form): 184 nM

CCc1nc2c(COc3ccc(CCC(=O)O)c(C)c3C)cc(Cl)cc2s1 [Compound 109, 3-{4-[(6-Chloro-2-ethyl-1,3-benzothiazol-4-yl)methoxy]-2,3-dimethylphenyl}propanoic acid]
EC50 [2]: 191 nM
EC50 (Human GPR120 short form): 38 nM

Cc1c(CCC(=O)O)ccc(OCc2cc(F)cc3sc(C(C)(C)C)nc23)c1C [Compound 107, 3-{4-[(2-tert-butyl-6-fluoro-1,3-benzothiazol-4-yl)methoxy]-2,3-dimethylphenyl}propanoic acid]
EC50 [2]: 3920 nM
EC50 (Human GPR120 short form): 1010 nM

Cc1cc2cc(Cl)c(CCCS(C)(=O)=O)c(COc3ccc(CCC(=O)O)c(C)c3C)c2o1 [Compound 108, 3-[4-({5-Chloro-2-methyl-6-[3-(methylsulfonyl)propyl]-1-benzofuran-7-yl}methoxy)-2,3-dimethylphenyl]propanoic acid]
EC50 (Human GPR120 short form): 2740 nM

Cc1c(CCC(=O)O)ccc(OCc2cc(Cl)cc3sc(CC(C)C)nc23)c1C [Compound 110, 3-(4-{[6-Chloro-2-(2-methylpropyl)-1,3-benzothiazol-4-yl]methoxy}-2,3-dimethylphenyl)propanoic acid]
EC50 [2]: 3310 nM
EC50 (Human GPR120 short form): 949 nM

Cc1c(CCC(=O)O)ccc(OCc2cc(F)cc3sc(C(C)C)nc23)c1C [Compound 111, 3-(4-{[6-Fluoro-2-(1-methylethyl)-1,3-benzothiazol-4-yl]methoxy}-2,3-dimethylphenyl)propanoic acid]
EC50 [2]: 299 nM
EC50 (Human GPR120 short form): 107 nM
